Molecules are shown by their SMILES.

What all share (assay type): cell-based, murine
Test [1] has as its system iNOS. In words: iNOS activity by Griess assay (nitrite formation), LPS-stimulated N9 microglia. Conditions: N9 cells. The source says:
(§1) TNL was a generous gift of Kissei Pharmaceuticals, LPC (Escherichia coli, 0127:BS), phorbol 12-myristate 13-acetate (PMA) and dexamethasone (DEX) were obtained from Sigma, BAY 11-7082 (BAY), NF-κB SN50 inhibitory peptide (SN50), GF 109203X (GFX) and rottlerin (ROT) were purchased from Biomol. PD098059 (PD) was obtained from Calbiochem. Purified murine interferon-γ (IFN-γ) was purchased from Roche Diagnostics. N9 murine microglial cells were a kind gift from P. Ricciardi-Castagnoli (Righi, M. et al. 1989 supra). Cells were cultured in Dulbecco's modified Eagle's medium (DMEM) supplemented with 10% fetal calf serum (FCS), 2 mM glutamine, penicillin (100 unit/mL) and streptomycin (100 μg/mL) and maintained at 37° in an atmosphere of 5% CO2. Viability was assessed by crystal violet staining.
iNOS activity was assessed by the Griess assay (Platten, M., Wick, W., Wischhusen, J. and Weller, M. Br J Pharmacol 134(6):1279-1284, 2001). Briefly, conditioned supernatant was incubated with an equal volume of Griess reagent containing 1% sulphanilamide, 0.1% naphthylethylenediamine dihydrochloride and 2.5% H3PO4 (Green, L. C., Wagner, D. A., Glogowski, J., Skipper, P. I., Wishnok, J. S, and Tannenbaum, S. R. Anal. Biochem., 126:131-138, 1982) for 5 min. at room temperature. The absorbance was measured at 546 nm. NaNO2 diluted in DMEM served as a standard. To control for cell number, the cells were stained with crystal violet. iNOS activity is expressed as nitrite accumulated in 48 hr/10^5 cells.

Test [2] relates to iNOS. In words: iNOS activity by Griess assay (NO2 release), IFN-γ-stimulated N9 microglia. Conditions: N9 cells, IFN-γ 200 u ml, 48 h, dexamethasone 500 nM. The method, then:
Tranilast was a generous gift of Kissei Pharmaceuticals (Nagano, Japan). Murine recombinant IFN-γ was purchased from Boehringer (Mannheim, Germany). Dexamethasone (DEX) was obtained from Sigma (Deisenhofen, Germany). N9 murine microglial cells were a kind gift from P. Ricciardi-Castagnoli (Milano, Italy) (Righi, M., Mori, L., De Libero, G., Sironi, M., Biondi, A., Mantovani, A., Donini, S. D. and Ricciardi-Castagnoli, P. Eur J Immunol 19(8):1443-1448, 1989). The cells were cultured in Dulbecco's modified Eagle's medium (DMEM) supplemented with 10% foetal calf serum (FCS), 2 mM glutamine and penicillin ([…])/streptomycin (100 μg ml), and maintained at 37° C. in an atmosphere of 5% CO2. Viability was assessed by crystal violet staining.
iNOS activity was assessed by the Griess assay as described elsewhere (Rieger, J., Stander, M., Loschmann, P. A., Heneka, M., Dichgans, J., Klockgether, T. and Weller, M., Oncogene, 17:2323-2332, 1998). Briefly, conditioned supernatant (100 μl) was incubated with an equal volume of 1% sulphanilamide/0.1% naphthyl ethylene diamine dihydrochloride/2.5% H3PO4 (Griess reagent) (Green, L. C., Wagner, D. A., Glogowski, J., Skipper, P. I., Wishnok, J. S, and Tannenbaum, S. R., Anal. Biochem., 126:131-138, 1982), incubated for 5 min at room temperature, and the absorbance at […] determined. Solutions of NaNO2 diluted in DMEM served as standards. The absorbance readings resulting from DMEM alone were subtracted from the sample values. Cell density was assessed using crystal violet staining to control for differences in cell proliferation. iNOS activity is thus expressed here as NO2 accumulated per 48 h per 10^5 cells.
On the technique in general: The Griess reaction detects nitrite, a stable product of nitric oxide.

Test [3] deals with iNOS. Nature of the test: iNOS protein immunoblot, LPS-stimulated N9 microglia.
From the text: as §1
For the preparation of whole cell lysates, the cells were lysed in 0.1 M Tris-HCl (pH 7.2) containing 0.1% NP40, 0.1 mM EDTA and 5 μg/mL phenylmethylsulphonyl fluoride. Twenty micrograms protein was separated by 10-12% SDS-PAGE and electroblotted on nitrocellulose membrane. Equal loading was controlled by Ponceau S staining. Immunodetection was performed using the following antibodies: anti-iNOS rabbit polyclonal antibody (1:1000, Cayman), antiphospho-IκBα mouse monoclonal antibody (1:1000), anti-PKCδ mouse monoclonal antibody (1:2000), antiphospho-MARCKS rabbit polyclonal antibody (1:1000), antiphospho-ERK-1/2, antiphospho-AKT, antiphospho-p38 mouse monoclonal antibodies (1:2000), anti-ERK-1/2, anti-AKT mouse monoclonal antibodies (1:500, all from Signal Transduction Laboratories). Bands were visualized using horseradish peroxidase-conjugated anti-rabbit IgG (1:4000 SantaCruz) or anti-mouse IgG (1:4000, Amersham).

A further test deals with ERK-1/2. In words: phospho-ERK-1/2 immunoblot after PKC depletion, LPS-stimulated N9 microglia. Conditions: N9 cells, prolonged pretreatment with PMA 100 nM 24 hr, then LPS 10 μg/mL.
From the text: as §1
(§2) For the preparation of whole cell lysates, the cells were lysed in 0.1 M Tris-HCl (pH 7.2) containing 0.1% NP40, 0.1 mM EDTA and 5 μg/mL phenylmethylsulphonyl fluoride. Twenty micrograms protein was separated by 10-12% SDS-PAGE and electroblotted on nitrocellulose membrane. Equal loading was controlled by Ponceau S staining. […]
Background: In western blotting, separated proteins are transferred to a membrane and probed.

A further test relates to PKCδ. In words: PKCδ immunoblot after long-term PMA in N9 microglia. To be noted: N9 cells, PMA 100 nM, 24 hr treatment, data not shown.
From the text: as §1, §2

As for `Cc1ccc(S(=O)(=O)/C=C/C#N)cc1` [BAY], the “LPS-stimulated NO release” value in the test with iNOS [1] (LPS, BAY 20 μM, vehicle-treated cells 14.6±1.0) is given as 11.1±0.7 μM/10^4 cells/48 hr.

With `C[C@@H]1C[C@H]2[C@@H]3CCC4=CC(=O)C=C[C@]4(C)[C@@]3(F)[C@@H](O)C[C@]2(C)[C@@]1(O)C(=O)CO` [dexamethasone], the “reduction of the amount of NO2 (Griess assay)” value in the test on iNOS [2] is reported as 75%.

`COc1cccc(-c2cc(=O)c3ccccc3o2)c1N` [PD] registered an LPS-mediated nitrite formation with iNOS [1] (LPS, 40 μM PD, vehicle-treated cells 16.6±0.3) of 10.7±0.4 μM/10^4 cells/48 hr.

With `CC(=O)c1c(O)c(C)c(O)c(Cc2c(O)c3c(c(C(=O)/C=C/c4ccccc4)c2O)OC(C)(C)C=C3)c1O` [ROT, rottlerin], the “iNOS protein accumulation after LPS” value in the test with iNOS [3] (N9 cells, LPS 10 μg/mL 24 hr, ROT at concentrations as low as 5 μM) was “strongly inhibited”.

With `CN(C)CCCn1cc(C2=C(c3c[nH]c4ccccc34)C(=O)NC2=O)c2ccccc21` [GFX], in the test with iNOS [3] (PMA 100 nM 15 min, LPS 10 μg/mL 24 hr, GFX 2 μM), the “PMA superinduction of iNOS protein in LPS-stimulated cells” value is reported as “abolished”.

Consider `CCCCCCCCCCCCCC(=O)O[C@@H]1[C@@H](C)[C@@]2(O)[C@@H](C=C(CO)C[C@]3(O)C(=O)C(C)=C[C@@H]23)[C@@H]2C(C)(C)[C@]12OC(C)=O` [PMA, phorbol 12-myristate 13-acetate], for which the “reduction of iNOS protein (densitometry)” value in the test on iNOS [3] (N9 cells, 24-hr exposure to PMA 100 nM, then LPS 10 μg/mL for 24 hr) came out at 80%. Also, the “LPS-mediated iNOS protein expression” value in the test with iNOS [3] (N9 cells, PMA 100 nM pretreatment 15 min, LPS 10 μg/mL, 24 hr) is recorded as “superinduction”. The “iNOS protein expression in the absence of LPS” value in the test with iNOS [3] (N9 cells, PMA 100 nM, no LPS) is “did not induce”. In the test on iNOS [1] (PMA 100 nM pretreatment 15 min, LPS 10 μg/mL, 48 hr), the LPS-mediated nitrite formation entry was “superinduction”. Further, in the test on ERK-1/2, the “LPS-induced ERK-1/2 phosphorylation” value is given as “failed to induce”. Also, in the test with PKCδ, the PKCδ protein level result is reported as “effectively depleted”.

The values above are taken from patent publication US7531575B2, “Method of modulating cellular activity and agents useful for same” (Eberhard-Karls-Universität Tübingin, priority 2002, dated 2009).
